Laboratory results from ChEMBL document CHEMBL4825740, “Novel Histone Deacetylase Inhibitors for Treating HIV Infection” (ACS Med Chem Lett, 2021).

What was measured:
Histone deacetylase 1 = Histone deacetylase 1 (Homo sapiens, UniProt Q13547); assay: Inhibition of human recombinant FLAG-tagged HDAC1 expressed in HEK293F cells incubated for 30 mins by Fluor De Lys assay; type: cell-based
Histone deacetylase 3 = Histone deacetylase 3 (Homo sapiens, UniProt O15379); assay: Inhibition of human recombinant FLAG-tagged HDAC3 expressed in HEK293F cells incubated for 30 mins by Fluor De Lys assay; type: cell-based
Histone deacetylase 3, sequence (O15379 whole entry): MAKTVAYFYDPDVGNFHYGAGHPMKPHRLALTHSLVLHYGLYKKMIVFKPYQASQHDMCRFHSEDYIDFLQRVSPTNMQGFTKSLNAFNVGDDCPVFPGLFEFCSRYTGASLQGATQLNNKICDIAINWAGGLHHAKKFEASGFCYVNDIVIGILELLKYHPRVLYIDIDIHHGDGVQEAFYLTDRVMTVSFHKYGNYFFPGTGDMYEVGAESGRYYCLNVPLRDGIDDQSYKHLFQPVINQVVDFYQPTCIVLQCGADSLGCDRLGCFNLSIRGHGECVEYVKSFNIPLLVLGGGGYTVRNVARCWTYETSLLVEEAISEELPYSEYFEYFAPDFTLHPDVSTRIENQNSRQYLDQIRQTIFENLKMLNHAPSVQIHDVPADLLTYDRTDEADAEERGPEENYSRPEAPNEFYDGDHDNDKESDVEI

Histone deacetylase 2 = Histone deacetylase 2 (Homo sapiens, UniProt Q92769); assay: Inhibition of human recombinant FLAG-tagged HDAC2 expressed in Sf9 cells incubated for 30 mins by Fluor De Lys assay
Histone deacetylase 2, sequence (Q92769 whole entry): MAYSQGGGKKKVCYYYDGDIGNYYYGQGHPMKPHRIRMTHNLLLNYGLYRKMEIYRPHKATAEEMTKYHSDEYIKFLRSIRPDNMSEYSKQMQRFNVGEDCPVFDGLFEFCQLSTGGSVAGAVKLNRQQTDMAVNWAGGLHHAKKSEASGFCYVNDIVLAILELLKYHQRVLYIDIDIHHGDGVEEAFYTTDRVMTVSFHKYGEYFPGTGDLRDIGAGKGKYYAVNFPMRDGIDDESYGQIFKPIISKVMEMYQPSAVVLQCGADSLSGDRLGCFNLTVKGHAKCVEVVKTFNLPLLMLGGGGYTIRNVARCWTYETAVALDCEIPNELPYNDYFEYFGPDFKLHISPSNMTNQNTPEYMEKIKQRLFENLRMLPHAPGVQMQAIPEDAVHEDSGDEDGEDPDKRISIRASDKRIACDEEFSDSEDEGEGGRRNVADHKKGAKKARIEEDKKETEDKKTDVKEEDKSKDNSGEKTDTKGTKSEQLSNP

Histone deacetylase 1, sequence (Q13547 whole entry): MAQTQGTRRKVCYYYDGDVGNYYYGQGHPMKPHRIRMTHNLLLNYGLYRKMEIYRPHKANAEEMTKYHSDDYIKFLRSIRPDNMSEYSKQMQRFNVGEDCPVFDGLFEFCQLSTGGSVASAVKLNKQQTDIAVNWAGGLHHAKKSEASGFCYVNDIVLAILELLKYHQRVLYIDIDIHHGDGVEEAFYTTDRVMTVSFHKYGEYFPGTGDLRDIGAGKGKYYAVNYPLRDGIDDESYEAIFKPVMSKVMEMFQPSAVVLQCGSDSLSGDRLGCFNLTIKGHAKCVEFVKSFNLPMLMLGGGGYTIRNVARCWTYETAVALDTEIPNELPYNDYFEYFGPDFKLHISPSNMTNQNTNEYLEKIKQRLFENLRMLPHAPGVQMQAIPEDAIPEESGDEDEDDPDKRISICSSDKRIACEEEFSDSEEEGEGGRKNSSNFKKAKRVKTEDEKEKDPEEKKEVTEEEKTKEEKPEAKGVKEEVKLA

Row | Structure (SMILES) | IC50 (Histone deacetylase 1) [nM] | IC50 (Histone deacetylase 3) [nM] | IC50 (Histone deacetylase 2) [nM]
1 | CCC(=O)CCCCC[C@H](NC(=O)[C@H]1CC12CCN(CC)CC2)c1ncc(-c2cc3cccnc3cc2OC)o1 | < 1.5 | < 1.5 | 
2 | CCC(=O)CCCCC[C@H](NC(=O)[C@H]1CC12CCN(C)CC2)c1ncc(-c2cc3ccc(N4CCCC4)nc3cc2OC)[nH]1 | 0.32 |  | 2
